28 compounds from patent US9580390B2, “Indazole compounds as kinase inhibitors and method of treating cancer with same” (University Health Network, priority 2011, dated 2017) can be followed below.

Where two headings read alike, the source gives them in different places.

Experiment [1] concerns colon cancer cells (HCT116). The experiment can be described thus: Cancer cell line growth inhibition (SRB assay). The experiment is classed as cell-based. Particulars: Homo sapiens, HCT-116, read-out: Cancer Cell Line GI50 Range HCT116.
Experiment [2] has as its system ovarian cancer cells (PA-1). The experiment can be described thus: Cancer cell line growth inhibition (SRB assay). Particulars: read-out: Cancer Cell Line GI50 Range PA-1. It counts as cell-based.
Setting [3] is: HCT116 colon cancer cells, SRB assay.
Where [4] appears, read: PA-1 ovarian cancer cells, SRB assay.

Consider `CN1CCC(Oc2ccc(-c3n[nH]c4ccc(C(=O)NC(c5ccsc5)C5CCC5)cc34)cc2)CC1` (centres unmarked) [Example A121, N-(cyclobutyl(thiophen-3-yl)methyl)-3-(4-((1-methylpiperidin-4-yl)oxy)phenyl)-1H-indazole-5-carboxamide], for which the GI50 in experiment [1] (setting [3]) and in experiment [2] (setting [4]) was less than 100 nM throughout.
As to `O=C(NC(c1ccccc1)C1CCC1)c1ccc2[nH]nc(-c3ccc(N4CCC(O)CC4)cc3)c2c1` (centres unmarked) [Example A100, N-(cyclobutyl(phenyl)methyl)-3-(4-(4-hydroxypiperidin-1-yl)phenyl)-1H-indazole-5-carboxamide], the GI50 in experiment [1] (setting [3]) and in experiment [2] (setting [4]) was less than 100 nM throughout.
On to `O=C(NC(c1ccccc1)C1CC1)c1ccc2[nH]nc(-c3ccc(N4CCC(O)CC4)cc3)c2c1` (centres unmarked) [Example A84, N-(cyclopropyl(phenyl)methyl)-3-(4-(4-hydroxypiperidin-1-yl)phenyl)-1H-indazole-5-carboxamide], for which the figures for the GI50 in experiment [1] (setting [3]) and in experiment [2] (setting [4]) were less than 100 nM and 100 to 500 nM, respectively.
`CN1CCOc2ccc(-c3n[nH]c4ccc(NC(=O)C(c5ccsc5)N5CCCC5)cc34)cc2C1` (centres unmarked) [Example A90, N-(3-(4-methyl-2,3,4,5-tetrahydrobenzo[f][1,4]oxazepin-7-yl)-1H-indazol-5-yl)-2-(pyrrolidin-1-yl)-2-(thiophen-3-yl)acetamide]: the GI50 in experiment [1] (setting [3]) is 100 to 500 nM; in experiment [2] (setting [4]) it was more than 500 nM.
In the case of `CN1CCN(C)c2ccc(-c3n[nH]c4ccc(NC(=O)C(c5ccsc5)N5CCCC5)cc34)cc2C1` (centres unmarked) [Example A93, N-(3-(1,4-dimethyl-2,3,4,5-tetrahydro-1H-benzo[e][1,4]diazepin-7-yl)-1H-indazol-5-yl)-2-(pyrrolidin-1-yl)-2-(thiophen-3-yl)acetamide], the GI50 in experiment [1] (setting [3]) and in experiment [2] (setting [4]) was more than 500 nM in each case.
On to `CN1CCC(Oc2ccc(-c3n[nH]c4ccc(C(=O)NCc5ccccc5N5CCOCC5)cc34)cc2)CC1` [Example A108, 3-(4-(1-Methylpiperidin-4-yloxy)phenyl)-N-(2-morpholinobenzyl)-1H-indazole-5-carboxamide], for which the GI50 in experiment [1] (setting [3]) and in experiment [2] (setting [4]) was 100 to 500 nM throughout.
Turning to `O=C(NC(c1ccccc1)C1CC1)c1ccc2[nH]nc(-c3ccc(OC4CCN(CCF)CC4)cc3)c2c1` (centres unmarked) [Example A122, N-(cyclopropyl(phenyl)methyl)-3-(4-((1-(2-fluoroethyl)piperidin-4-yl)oxy)phenyl)-1H-indazole-5-carboxamide], the GI50 in experiment [1] (setting [3]) and in experiment [2] (setting [4]) was 100 to 500 nM in each case.
On to `COc1cc(-c2n[nH]c3ccc(C(=O)NC(c4ccccn4)C4CC4)cc23)ccc1OC1CCN(C=O)CC1` (centres unmarked) [Example A206, N-(cyclopropyl(pyridin-2-yl)methyl)-3-(4-((1-formylpiperidin-4-yl)oxy)-3-methoxyphenyl)-1H-indazole-5-carboxamide], for which the GI50 in experiment [1] (setting [3]) and in experiment [2] (setting [4]) was 100 to 500 nM throughout.
For `O=C(NC(c1ccccc1)C1CC1)c1ccc2[nH]nc(-c3ccc(OCCN4CCOCC4)cc3)c2c1` (centres unmarked) [Example A140, N-(cyclopropyl(phenyl)methyl)-3-(4-(2-morpholinoethoxy)phenyl)-1H-indazole-5-carboxamide], the GI50 in experiment [1] (setting [3]) and in experiment [2] (setting [4]) was 100 to 500 nM in each case.
For the compound `O=C(N[C@@H](c1ccccn1)C1CC1)c1ccc2[nH]nc(-c3ccc(OC4CCN(C5COC5)CC4)cc3)c2c1` [Example A196, (R)-N-(cyclopropyl(pyridin-2-yl)methyl)-3-(4-((1-(oxetan-3-yl)piperidin-4-yl)oxy)phenyl)-1H-indazole-5-carboxamide], the GI50 in experiment [1] (setting [3]) and in experiment [2] (setting [4]) was less than 100 nM each time.
Regarding `O=C(Nc1ccc2[nH]nc(-c3ccc(N4CCC(O)CC4)cc3)c2c1)C(c1cccs1)N1CCCC1` (centres unmarked) [Example A88, N-(3-(4-(4-hydroxypiperidin-1-yl)phenyl)-1H-indazol-5-yl)-2-(pyrrolidin-1-yl)-2-(thiophen-2-yl)acetamide], the GI50 in experiment [1] (setting [3]) and in experiment [2] (setting [4]) was less than 100 nM throughout.
As to `COCCN1CCC(Oc2ccc(-c3n[nH]c4ccc(C(=O)N[C@H](COC)c5ccccc5)cc34)cc2)CC1` [Example A164, (S)-N-(2-methoxy-1-phenylethyl)-3-(4-((1-(2-methoxyethyl)piperidin-4-yl)oxy)phenyl)-1H-indazole-5-carboxamide], the GI50 in experiment [1] (setting [3]) and in experiment [2] (setting [4]) was 100 to 500 nM each time.
Turning to `CC(C)(O)C1CCN(c2ccc(-c3n[nH]c4ccc(C(=O)NC(c5ccccc5)C5CC5)cc34)cc2)CC1` (centres unmarked) [Example A112, N-(cyclopropyl(phenyl)methyl)-3-(4-(4-(2-hydroxypropan-2-yl)piperidin-1-yl)phenyl)-1H-indazole-5-carboxamide], the GI50 in experiment [1] (setting [3]) and in experiment [2] (setting [4]) was 100 to 500 nM each time.
As to `CN(C)C(=O)CN1CCC(Oc2ccc(-c3n[nH]c4ccc(C(=O)NC(c5ccccc5)C5CC5)cc34)cc2)CC1` (centres unmarked) [Example A158, N-(cyclopropyl(phenyl)methyl)-3-(4-((1-(2-(dimethylamino)-2-oxoethyl)piperidin-4-yl)oxy)phenyl)-1H-indazole-5-carboxamide], the GI50 in experiment [1] (setting [3]) and in experiment [2] (setting [4]) was 100 to 500 nM in each case.
As to `COCCN1CCC(Oc2ccc(-c3n[nH]c4ccc(C(=O)NC(c5ccccc5)C5CCCC5)cc34)cc2)CC1` (centres unmarked) [Example A161, N-(cyclopentyl(phenyl)methyl)-3-(4-((1-(2-methoxyethyl)piperidin-4-yl)oxy)phenyl)-1H-indazole-5-carboxamide], the GI50 in experiment [1] (setting [3]) and in experiment [2] (setting [4]) was 100 to 500 nM each time.
With `CCC(NC(=O)c1ccc2[nH]nc(-c3ccc(OC4CCN(CCOC)CC4)cc3)c2c1)c1ccccc1` (centres unmarked) [Example A153, 3-(4-((1-(2-methoxyethyl)piperidin-4-yl)oxy)phenyl)-N-(1-phenylpropyl)-1H-indazole-5-carboxamide], the GI50 in experiment [1] (setting [3]) and in experiment [2] (setting [4]) was 100 to 500 nM in each case.
For the compound `CN1CCC(Oc2ccc(-c3n[nH]c4ccc(NC(=O)C(c5ccsc5)N5CCCC5)cc34)cc2N(C)C)CC1` (centres unmarked) [Example A113, N-(3-(3-(dimethylamino)-4-((1-methylpiperidin-4-yl)oxy)phenyl)-1H-indazol-5-yl)-2-(pyrrolidin-1-yl)-2-(thiophen-3-yl)acetamide], the GI50 in experiment [1] (setting [3]) and in experiment [2] (setting [4]) was less than 100 nM in each case.
For the compound `O=CN1CCC(Oc2ccc(-c3n[nH]c4ccc(C(=O)N[C@@H](c5ncccc5Cl)C5CC5)cc34)cc2)CC1` [Example A211, (R)-N-((3-chloropyridin-2-yl)(cyclopropyl)methyl)-3-(4-((1-formylpiperidin-4-yl)oxy)phenyl)-1H-indazole-5-carboxamide], the GI50 in experiment [1] was in the range of 100 to 500 nM; in experiment [2] (Homo sapiens, PA-1), 100 to 500 nM.
For the compound `CN1CCC(Oc2ccc(-c3n[nH]c4ccc(NC(=O)C5CCCc6ccccc65)cc34)cc2)CC1` (centres unmarked) [Example A18], the GI50 in experiment [1] (setting [3]) and in experiment [2] (setting [4]) was 100 to 500 nM throughout.
As to `O=C(Nc1ccc2[nH]nc(-c3ccc(N4CC(O)C4)cc3)c2c1)C(c1ccsc1)N1CCCC1` (centres unmarked) [Example A120, N-(3-(4-(3-Hydroxyazetidin-1-yl)phenyl)-1H-indazol-5-yl)-2-(pyrrolidin-1-yl)-2-(thiophen-3-yl)acetamide], the GI50 in experiment [1] (setting [3]) and in experiment [2] (setting [4]) was less than 100 nM in each case.
Regarding `Cc1ccccc1C(NC(=O)c1ccc2[nH]nc(-c3ccc(OC4CCN(C)CC4)cc3)c2c1)C(C)C` (centres unmarked) [Example A143, N-(2-methyl-1-(o-tolyl)propyl)-3-(4-((1-methylpiperidin-4-yl)oxy)phenyl)-1H-indazole-5-carboxamide], the GI50 in experiment [1] (setting [3]) and in experiment [2] (setting [4]) was 100 to 500 nM each time.
For the compound `CCc1cccc(CC)c1NC(=O)Nc1ccc2[nH]nc(-c3ccc4c(c3)CN(C)CCO4)c2c1` [Example A114, 1-(2,6-diethylphenyl)-3-(3-(4-methyl-2,3,4,5-tetrahydrobenzo[f][1,4]oxazepin-7-yl)-1H-indazol-5-yl)urea], the GI50 in experiment [1] (setting [3]) and in experiment [2] (setting [4]) was more than 500 nM each time.
As for `O=C(NC(c1ccccn1)C1CC1)c1ccc2[nH]nc(-c3ccc(OC4CN(C5COC5)C4)cc3)c2c1` (centres unmarked) [Example A209, N-(cyclopropyl(pyridin-2-yl)methyl)-3-(4-((1-(oxetan-3-yl)azetidin-3-yl)oxy)phenyl)-1H-indazole-5-carboxamide], the GI50 in experiment [1] (setting [3]) and in experiment [2] (setting [4]) was 100 to 500 nM in each case.
On to `CN1CCC(Oc2ccc(-c3n[nH]c4ccc(C(=O)N[C@@H](CCO)c5ccccc5)cc34)cc2)CC1` [Example A125, (S)-N-(3-hydroxy-1-phenylpropyl)-3-(4-((1-methylpiperidin-4-yl)oxy)phenyl)-1H-indazole-5-carboxyamide], for which the GI50 in experiment [1] (setting [3]) and in experiment [2] (setting [4]) was 100 to 500 nM each time.
For `CN1CCC(Oc2ccc(-c3n[nH]c4ccc(C(=O)NC(c5ccccc5Cl)C5CCCC5)cc34)cc2)CC1` (centres unmarked) [Example A199, N-((2-chlorophenyl)(cyclopentyl)methyl)-3-(4-((1-methylpiperidin-4-yl)oxy)phenyl)-1H-indazole-5-carboxamide], the GI50 in experiment [1] (setting [3]) and in experiment [2] (setting [4]) was 100 to 500 nM each time.
For the compound `COc1cc(-c2n[nH]c3ccc(C(=O)NC(c4ccccn4)C4CC4)cc23)ccc1OC1CCN(C2COC2)CC1` (centres unmarked) [Example A195, N-(cyclopropyl(pyridin-2-yl)methyl)-3-(3-methoxy-4-((1-(oxetan-3-yl)piperidin-4-yl)oxy)phenyl)-1H-indazole-5-carboxamide], the GI50 in experiment [1] (setting [3]) and in experiment [2] (setting [4]) was 100 to 500 nM each time.
For `COC(C(=O)Nc1ccc2[nH]nc(-c3ccc(N4CCC(O)CC4)cc3)c2c1)c1ccsc1` (centres unmarked) [Example A87, N-(3-(4-(4-hydroxypiperidin-1-yl)phenyl)-1H-indazol-5-yl)-2-methoxy-2-(thiophen-3-yl)acetamide], the GI50 in experiment [1] (setting [3]) and in experiment [2] (setting [4]) was 100 to 500 nM throughout.
Regarding `CC[C@@H](NC(=O)c1ccc2[nH]nc(-c3ccc(OC4CCN(C5COC5)CC4)cc3)c2c1)c1ccccc1Cl` [Example A192, (R)-N-(1-(2-chlorophenyl)propyl)-3-(4-((1-(oxetan-3-yl)piperidin-4-yl)oxy)phenyl)-1H-indazole-5-carboxamide], the 50% growth inhibitory concentration (GI50) in experiment [1] (setting [3]) and in experiment [2] (setting [4]) was 100 to 500 nM each time.
